For four compounds, IC50 results are on record in publication PMC3014437 (Bioorganic & medicinal chemistry, 2010).

The test system of the experiment is LPS-induced iNOS-dependent NO production. As to the kind of experiment: LPS-induced NO production. The experiment is classed as cell-based, murine. Particulars: Mus musculus, read-out: IC50 (µM) in NOS.
Consider `C=C(C)C#Cc1c(C)c(OC)c(OC)c2c1OCO2` [Compound 2, Benzocamphorin B], for which the half-inhibitory concentration (IC50) – broadly, the point on the concentration scale where inhibition reaches its midpoint – was 12.1 µM.

`CC(C)[C@@H](C)/C=C/[C@@H](C)[C@H]1CC[C@@H]2[C@]1(C)CC[C@H]1[C@]23C=C[C@]2(C[C@@H](O)CC[C@]12C)OO3` [Compound 37, ergosterol peroxide]: the IC50 is 6.3 ± 1.8 µM.

Consider `C=C(CC[C@@H](C)[C@H]1CC[C@H]2C3=C(C(=O)C[C@]12C)[C@@]1(C)CC[C@@H](O)[C@](C)(O)[C@@H]1C[C@@H]3O)C(C)C(=O)O` (stereo partly shown) [Compound 32, antcin K], for which the IC50 is > 50 µM.

With `COc1cc(C)c(OC)c2c1OCO2` [Compound 8, 4,7-dimethoxy-5-methyl-1,3-benzodioxole], the IC50 was determined as 29.1 ± 4.4 µM.
